Where two headings read alike, the source gives them in different places.
Tests used:
[1] = ADME solubility determination in PBS at pH 2.0 and pH 7.4; assay type: physicochemical; conditions: phosphate buffered saline, 25 °C, thermodynamic from solid
Outline: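 Solubility was read by LC-MS/MS on centrifuged supernatants, calibrated to a known-concentration standard and corrected for dilution. Compound, dried down from 10 mM DMSO stock, was equilibrated 24 h at 25° C with shaking in PBS at pH 2.0 or pH 7.4.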

USP1/UAF1 enzyme = USP1/UAF1 enzyme (Homo sapiens, UniProt O94782); assay: USP1/UAF1 deubiquitination assay (ubiquitin-rhodamine 110 substrate); assay type: biochemical; conditions: read-out: USP1 IC50 (Ub-Rho)
Chain of USP1/UAF1 enzyme (O94782 whole entry): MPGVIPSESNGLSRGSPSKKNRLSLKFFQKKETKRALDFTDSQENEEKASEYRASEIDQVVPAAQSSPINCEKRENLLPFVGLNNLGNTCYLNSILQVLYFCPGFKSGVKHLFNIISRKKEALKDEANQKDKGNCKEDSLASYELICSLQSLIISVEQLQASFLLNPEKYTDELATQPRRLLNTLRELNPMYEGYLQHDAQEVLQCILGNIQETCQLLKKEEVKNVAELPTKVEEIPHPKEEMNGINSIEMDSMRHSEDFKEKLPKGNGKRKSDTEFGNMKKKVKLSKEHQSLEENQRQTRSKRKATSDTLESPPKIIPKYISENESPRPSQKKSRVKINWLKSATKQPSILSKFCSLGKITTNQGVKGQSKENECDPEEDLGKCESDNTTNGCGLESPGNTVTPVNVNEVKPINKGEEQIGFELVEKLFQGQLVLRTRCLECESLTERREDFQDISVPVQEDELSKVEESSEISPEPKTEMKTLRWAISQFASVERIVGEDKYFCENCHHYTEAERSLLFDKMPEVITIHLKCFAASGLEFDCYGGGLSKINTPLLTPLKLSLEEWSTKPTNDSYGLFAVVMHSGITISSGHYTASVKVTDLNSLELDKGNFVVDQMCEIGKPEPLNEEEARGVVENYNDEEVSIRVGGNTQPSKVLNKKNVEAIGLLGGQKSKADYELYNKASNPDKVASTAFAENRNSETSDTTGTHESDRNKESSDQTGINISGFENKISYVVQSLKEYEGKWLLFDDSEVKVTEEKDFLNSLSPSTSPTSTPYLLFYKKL
Chain of USP1/UAF1 enzyme (Q8TAF3 whole entry partner): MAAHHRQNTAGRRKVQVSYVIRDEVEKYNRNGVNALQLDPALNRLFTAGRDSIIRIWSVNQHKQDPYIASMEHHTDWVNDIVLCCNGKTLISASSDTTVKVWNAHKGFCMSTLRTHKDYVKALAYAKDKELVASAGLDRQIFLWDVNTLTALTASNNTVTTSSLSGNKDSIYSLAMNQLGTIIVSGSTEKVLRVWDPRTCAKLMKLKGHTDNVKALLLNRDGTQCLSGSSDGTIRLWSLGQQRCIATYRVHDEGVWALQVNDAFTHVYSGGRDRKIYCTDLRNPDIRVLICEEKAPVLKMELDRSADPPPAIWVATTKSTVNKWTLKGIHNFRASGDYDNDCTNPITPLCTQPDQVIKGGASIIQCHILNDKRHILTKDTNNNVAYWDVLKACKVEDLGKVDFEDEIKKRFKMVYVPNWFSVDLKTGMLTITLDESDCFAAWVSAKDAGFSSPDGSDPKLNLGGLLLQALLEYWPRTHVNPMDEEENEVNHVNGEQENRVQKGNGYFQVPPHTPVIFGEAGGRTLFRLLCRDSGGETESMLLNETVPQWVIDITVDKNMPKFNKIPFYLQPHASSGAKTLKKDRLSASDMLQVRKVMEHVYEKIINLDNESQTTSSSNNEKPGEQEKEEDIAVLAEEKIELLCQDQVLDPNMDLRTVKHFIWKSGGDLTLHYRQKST
Outline: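 Cleavage of 150 nM ubiquitin-rhodamine 110 by 0.05 nM USP1/UAF1 was followed as fluorescence (Ex480/Em540, kinetic, 30 min) in Tris-HCl pH 7.8 buffer with EDTA, BSA, DTT and Tween-20. Compounds, top 10 μM, were preincubated with enzyme 10 min; % inhibition against no-enzyme and DMSO wells gave four-parameter IC50s.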

[2] = test system: Ub-PCNA levels in the nucleus of ES2 cells (USP1 activity); assay: ES2 Ub-PCNA immunofluorescence (IF) assay; assay type: cell-based; conditions: Homo sapiens, read-out: USP1 IC50 (Ub-PCNA)
Outline: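 AC50 derived from percent Ub-PCNA-positive nuclei, positivity set by a 95% cutoff from untreated-well intensities. Readout by imaging immunofluorescence (anti-Ub-PCNA, DAPI nuclear mask) after methanol fixation. Compound exposure: 3 h at 37° C, 0.3% DMSO final, on cells plated overnight.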

[3] = Liver microsomal metabolic stability, rat liver microsomes (RLM); conditions: rat, liver microsomes, t1/2 (min) in RLM, 1 μM compound, 1 mg/mL microsomes, NADPH
[4] = Liver microsomal metabolic stability, human liver microsomes (HLM); conditions: human, liver microsomes
Experimental: Samples were prepared by adding 222.5 μL of a master solution (100 mM phosphate buffer and 1 mg/mL liver microsomes (HLM or RLM)) and 25 μL of a 10 mM NADPH solution to incubation plates, which were then warmed for 10 min. Each compound was separately dissolved in DMSO to prepare 10 mM stock solutions, which were then diluted to 100 μM with acetonitrile. A reaction was started by adding 2.5 μL of the 100 μM solution of each compound to separate incubation plates such that the final concentration of for each compound in each plate was 1 μM.
25 μL aliquots of each sample were taken at 0.5, 5, 10, 15, 20 and 30 minutes, and the reaction was stopped by adding 5 volumes of cold acetonitrile with IS (100 nM alprazolam, 200 nM caffeine and 100 nM tolbutamide). The samples were then centrifuged at 3,220 G for 30 minutes, and 100 μL of the supernatant fluid was mixed with 100 μL of ultra-pure H2O.
The samples were then analyzed by LC-MS/MS. Peak areas were determined from extracted ion chromatograms. Slope values (k) were determined by linear regression of the natural logarithm of the remaining percentage of the compound vs. incubation time curve. The in vitro half-life (in vitro t1/2) was determined from the slope value using the following equation:

[5] = pH 2, aqueous buffer, PBS pH 2.0, 25° C., read-out: Solubility at pH 2.0
[6] = pH 7.4, aqueous buffer, PBS pH 7.4, 25° C., read-out: Solubility at pH 7.4
[7] = ES-2, ES2 cells, 3 hours, Ub-PCNA immunofluorescence

| SMILES | solubility at 24 h [1, 5] [µM] | solubility at 24 h [1, 6] [µM] | IC50 (USP1/UAF1 enzyme) [nM] | IC50 [2, 7] [nM] | half-life at 1 μM [3] [min] | half-life at 1 μM [4] [min] | IC50 ([2]; ES-2, 3 h) [nM] |
| --- | --- | --- | --- | --- | --- | --- | --- |
| CC(C)Oc1cccnc1-c1ccc(CN2C(=O)CCn3nc(-c4c(Cl)cnn4C(C)C)nc32)cc1 [Example 304] | ≥ 10 | < 10 | < 100 | 100 to 500 | < 25 | < 25 |  |
| COc1cccnc1-c1ccc(CN2C(=O)CCn3nc(-c4c(Cl)cnn4C(C)C)cc32)cc1 [Example 305] | ≥ 10 | < 10 | < 100 | 100 to 500 | < 25 | < 25 |  |
| CCOc1cccnc1-c1ccc(CN2C(=O)CCn3nc(-c4c(Cl)cnn4C(C)C)cc32)cc1Cl [Example 307] | < 10 | < 10 | < 100 | 100 to 500 | < 25 | < 25 |  |
| COc1ccc(C)nc1-c1ccc(CN2C(=O)CCn3nc(-c4c(Cl)cnn4C(C)C)cc32)cc1Cl [Example 309] | ≥ 10 | < 10 | < 100 | 100 to 500 | < 25 | < 25 |  |
| CC(C)n1ncc(Cl)c1-c1cc2n(n1)CCC(=O)N2Cc1ccc(-c2ncccc2N(C)C)cc1 [Example 321] | ≥ 10 | < 10 | < 100 | < 100 | < 25 | < 25 |  |
| CCn1cc(C(F)(F)F)nc1-c1ccc(CN2CC(C)(C)Cn3nc(-c4c(OC)ncnc4C4CC4)cc32)cc1F [Example 327, 2-(4-cyclopropyl-6-methoxypyrimidin-5-yl)-4-(4-(1-ethyl-4-(trifluoromethyl)-1H-imidazol-2-yl)-3-fluorobenzyl)-6,6-dimethyl-4,5,6,7-tetrahydropyrazolo[1,5-α]pyrimidine] | ≥ 10 | < 10 | < 100 | < 100 | < 25 | < 25 |  |
| CCn1cc(C(F)(F)F)nc1-c1ccc(CNC2CCCn3nc(-c4c(Cl)cnn4C(C)C)cc32)cc1 (stereo not drawn) [Example 330, 2-(4-chloro-1-isopropyl-1H-pyrazol-5-yl)-N-(4-(1-ethyl-4-(trifluoromethyl)-1H-imidazol-2-yl)benzyl)-4,5,6,7-tetrahydropyrazolo[1,5-α]pyridin-4-amine] | ≥ 10 | < 10 | < 100 |  | < 25 | < 25 | < 100 |
| CCn1cc(C(F)(F)F)nc1-c1ccc(N(CCO)C2CCCn3nc(-c4c(Cl)cnn4C(C)C)cc32)cc1F (stereo not drawn) [Example 331, 2-((2-(4-chloro-1-isopropyl-1H-pyrazol-5-yl)-4,5,6,7-tetrahydropyrazolo[1,5-α]pyridin-4-yl)(4-(1-ethyl-4-(trifluoromethyl)-1H-imidazol-2-yl)-3-fluorophenyl)amino)-ethan-1-ol] | < 10 | < 10 | < 100 | < 100 | < 25 | < 25 |  |
| CCn1cc(C(F)(F)F)nc1-c1ccc(Cn2c(=O)ccn3nc(-c4c(OC)ncnc4C4CC4)cc23)cc1 [Example 332, 2-(4-cyclopropyl-6-methoxypyrimidin-5-yl)-4-(4-(1-ethyl-4-(trifluoromethyl)-1H-imidazol-2-yl)benzyl)pyrazolo[1,5-α]pyrimidin-5(4H)-one] | ≥ 10 | ≥ 10 | < 100 | < 100 | > 25 | > 25 |  |
| CCn1cc(C(F)(F)F)nc1-c1ccc([C@@H](C)n2c(=O)ccn3nc(-c4c(OC)ncnc4C4CC4)cc23)cc1F [Example 333, (R)-2-(4-cyclopropyl-6-methoxypyrimidin-5-yl)-4-(1-(4-(1-ethyl-4-(trifluoromethyl)-1H-imidazol-2-yl)-3-fluorophenyl)ethyl)pyrazolo[1,5-α]pyrimidin-5(4H)-one] | < 10 | < 10 | < 100 | < 100 | > 25 | > 25 |  |
| CCn1cc(C(F)(F)F)nc1-c1ccc([C@@H](C)n2c(=O)ccn3nc(-c4c(OC)ncnc4C4CC4)cc23)cc1 [Example 335, (R)-2-(4-cyclopropyl-6-methoxypyrimidin-5-yl)-4-(1-(4-(1-ethyl-4-(trifluoromethyl)-1H-imidazol-2-yl)phenyl)ethyl)pyrazolo[1,5-a]pyrimidin-5(4H)-one] | ≥ 10 | < 10 | < 100 | < 100 | > 25 | > 25 |  |
| CCn1cc(C(F)(F)F)nc1-c1ccc([C@H](C)n2c(=O)ccn3nc(-c4c(OC)ncnc4C4CC4)cc23)cc1 [Example 336, (S)-2-(4-cyclopropyl-6-methoxypyrimidin-5-yl)-4-(1-(4-(1-ethyl-4-(trifluoromethyl)-1H-imidazol-2-yl)phenyl)ethyl)pyrazolo[1,5-a]pyrimidin-5(4H)-one] | ≥ 10 | < 10 | < 100 | < 100 | > 25 | < 25 |  |
| CCn1cc(C(F)(F)F)nc1-c1ccc(Cn2c(=O)ccn3nc(-c4c(OC)ncnc4C4CC4)nc23)cc1 [Example 337, 2-(4-cyclopropyl-6-methoxypyrimidin-5-yl)-4-(4-(1-ethyl-4-(trifluoromethyl)-1H-imidazol-2-yl)benzyl)-[1,2,4]triazolo[1,5-α]pyrimidin-5(4H)-one] | ≥ 10 | < 10 | < 100 | < 100 | > 25 | > 25 |  |
| CCn1cc(C(F)(F)F)nc1-c1ccc([C@@H](C)n2c(=O)ccn3nc(-c4c(OC)ncnc4C4CC4)nc23)cc1 [Example 338, (R)-2-(4-cyclopropyl-6-methoxypyrimidin-5-yl)-4-(1-(4-(1-ethyl-4-(trifluoromethyl)-1H-imidazol-2-yl)phenyl)ethyl)-[1,2,4]triazolo[1,5-a]pyrimidin-5(4H)-one] | ≥ 10 | < 10 | < 100 | < 100 | < 25 | > 25 |  |
| CCn1cc(C(F)(F)F)nc1-c1ccc([C@H](C)n2c(=O)ccn3nc(-c4c(OC)ncnc4C4CC4)nc23)cc1 [Example 339, (S)-2-(4-cyclopropyl-6-methoxypyrimidin-5-yl)-4-(1-(4-(1-ethyl-4-(trifluoromethyl)-1H-imidazol-2-yl)phenyl)ethyl)-[1,2,4]triazolo[1,5-a]pyrimidin-5(4H)-one] | ≥ 10 | < 10 | < 100 | < 100 | > 25 | < 25 |  |
| CCn1cc(C(F)(F)F)nc1-c1ccc(C(C)n2c(=O)ccn3nc(-c4c(OC)ncnc4C4CC4)nc23)cc1 (stereo not drawn) [Example 340, 2-(4-cyclopropyl-6-methoxypyrimidin-5-yl)-4-(1-(4-(1-ethyl-4-(trifluoromethyl)-1H-imidazol-2-yl)phenyl)ethyl)-[1,2,4]triazolo[1,5-a]pyrimidin-5(4H)-one] | ≥ 10 | ≥ 10 | < 100 | < 100 | > 25 | > 25 |  |
| CCn1cc(C(F)(F)F)nc1-c1ccc(Cn2c(=O)ccn3nc(-c4c(Cl)cnn4C(C)C)nc23)cc1F [Example 343, 2-(4-chloro-1-isopropyl-1H-pyrazol-5-yl)-4-(4-(1-ethyl-4-(trifluoromethyl)-1H-imidazol-2-yl)-3-fluorobenzyl)-[1,2,4]triazolo[1,5-a]pyrimidin-5(4H)-one] | < 10 | < 10 | < 100 | < 100 | > 25 | > 25 |  |
| CCn1cc(C(F)(F)F)nc1-c1ccc(Cn2c(=O)ccn3nc(-c4c(OC(F)F)ncnc4C4CC4)nc23)cc1 [Example 345] | < 10 | < 10 | < 100 | < 100 | > 25 | > 25 |  |
| COc1ncnc(C2CC2)c1-c1nc2n(Cc3ccc(-c4nc(C(F)(F)F)cn4C(C)C)c(F)c3OC)c(=O)ccn2n1 [Example 346, 2-(4-cyclopropyl-6-methoxypyrimidin-5-yl)-4-(3-fluoro-4-(1-isopropyl-4-(trifluoromethyl)-1H-imidazol-2-yl)-2-methoxybenzyl)-[1,2,4]triazolo[1,5-a]pyrimidin-5(4H)-one] | < 10 | < 10 | < 100 | < 100 | > 25 | > 25 |  |
